{
  "source": "ChEMBL document CHEMBL6134858",
  "about": "“Structure-Based Discovery Targeting GSK-3α Reveals Potent Nanomolar Selective 4-Phenyl-1H-benzofuro[3,2-b]pyrazolo[4,3-e]pyridine Inhibitor with Promising Glioblastoma and CNS-Active Potential in Cellular Models” (J Med Chem, 2025)",
  "key": {"U-251 [1]": {"tested_on": "U-251", "assay": "Antiproliferative activity against human U-251MG cells assessed as reduction in cell viability incubated for 24 to 72 hrs by PrestoBlue cell viability assay", "format": "functional, cell-based", "conditions": "dose 0.3-300 µM, time 24-72 hrs"}, "T98G [2]": {"tested_on": "T98G", "assay": "Antiproliferative activity against human T98G cells assessed as reduction in cell viability incubated for 24 hrs by PrestoBlue cell viability assay"}, "T98G [3]": {"tested_on": "T98G", "assay": "Antiproliferative activity against human T98G cells assessed as reduction in cell viability incubated for 48 hrs by PrestoBlue cell viability assay"}, "T98G [4]": {"tested_on": "T98G", "assay": "Antiproliferative activity against human T98G cells assessed as reduction in cell viability incubated for 72 hrs by PrestoBlue cell viability assay"}, "U-87 MG [5]": {"tested_on": "U-87 MG", "assay": "Antiproliferative activity against human U-87 MG cells assessed as reduction in cell viability incubated for 24 hrs by PrestoBlue cell viability assay"}, "U-87 MG [6]": {"tested_on": "U-87 MG", "assay": "Antiproliferative activity against human U-87 MG cells assessed as reduction in cell viability incubated for 48 hrs by PrestoBlue cell viability assay"}, "U-87 MG [7]": {"tested_on": "U-87 MG", "assay": "Antiproliferative activity against human U-87 MG cells assessed as reduction in cell viability incubated for 72 hrs by PrestoBlue cell viability assay"}, "T98G [8]": {"tested_on": "T98G", "assay": "Antiproliferative activity against human T98G cells assessed as reduction in cell viability incubated for 24 to 72 hrs by PrestoBlue cell viability assay", "format": "functional, cell-based", "conditions": "dose 0.3-300 µM, time 24-72 hrs"}, "U-87 MG [9]": {"tested_on": "U-87 MG", "assay": "Antiproliferative activity against human U-87 MG cells assessed as reduction in cell viability incubated for 24 to 72 hrs by PrestoBlue cell viability assay", "format": "functional, cell-based", "conditions": "U-87MG ATCC, time 24-72 hrs"}, "U-251 [10]": {"tested_on": "U-251", "assay": "cells", "conditions": "Homo sapiens, U-251, 24 h", "description": "Antiproliferative activity against human U-251MG cells assessed as reduction in cell viability incubated for 24 hrs by PrestoBlue cell viability assay"}, "U-251 [11]": {"tested_on": "U-251", "assay": "cells", "conditions": "Homo sapiens, U-251, 48 h", "description": "Antiproliferative activity against human U-251MG cells assessed as reduction in cell viability incubated for 48 hrs by PrestoBlue cell viability assay"}, "U-251 [12]": {"tested_on": "U-251", "assay": "cells", "conditions": "Homo sapiens, U-251, 72 h", "description": "Antiproliferative activity against human U-251MG cells assessed as reduction in cell viability incubated for 72 hrs by PrestoBlue cell viability assay"}, "U-87 MG [13]": {"tested_on": "U-87 MG", "assay": "Induction of cell cycle arrest in human U-87 MG cells assessed as accumulation of cell at G1 phase at IC50 concentration incubated for 72 hrs by propidium iodide/RNase staining based flow cytometry (reference value: 55.0 %)", "format": "functional, U-87MG ATCC"}, "[14]": {"assay": "Inhibition of PKA (unknown origin)", "set-up": "species or system Homo sapiens"}, "Homo sapiens [15]": {"species": "Homo sapiens", "assay": "Inhibition of PKA (unknown origin) assessed as residual activity at 10 uM relative to control"}, "[16]": {"molecular_target": "Cyclin-dependent kinase 2 (Homo sapiens) (UniProt P24941)", "assay": "Inhibition of CDK2 (unknown origin) assessed as residual activity at 10 uM relative to control"}, "[17]": {"molecular_target": "Cyclin-dependent kinase 5 (Homo sapiens) (UniProt Q00535)", "sequence (Q00535 whole entry, looked up)": "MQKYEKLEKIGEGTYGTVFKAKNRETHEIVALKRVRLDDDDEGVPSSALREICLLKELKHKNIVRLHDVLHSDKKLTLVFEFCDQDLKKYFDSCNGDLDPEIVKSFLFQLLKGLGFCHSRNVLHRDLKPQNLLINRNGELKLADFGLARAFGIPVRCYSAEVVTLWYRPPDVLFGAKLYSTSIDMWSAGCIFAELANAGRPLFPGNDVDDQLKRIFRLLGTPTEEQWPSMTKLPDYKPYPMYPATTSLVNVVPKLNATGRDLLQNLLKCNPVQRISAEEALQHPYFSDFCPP", "assay": "Inhibition of CDK5 (unknown origin) assessed as residual activity at 10 uM relative to control"}, "[18]": {"molecular_target": "Cyclin-dependent kinase 9 (Homo sapiens) (UniProt P50750)", "sequence (P50750 whole entry)": "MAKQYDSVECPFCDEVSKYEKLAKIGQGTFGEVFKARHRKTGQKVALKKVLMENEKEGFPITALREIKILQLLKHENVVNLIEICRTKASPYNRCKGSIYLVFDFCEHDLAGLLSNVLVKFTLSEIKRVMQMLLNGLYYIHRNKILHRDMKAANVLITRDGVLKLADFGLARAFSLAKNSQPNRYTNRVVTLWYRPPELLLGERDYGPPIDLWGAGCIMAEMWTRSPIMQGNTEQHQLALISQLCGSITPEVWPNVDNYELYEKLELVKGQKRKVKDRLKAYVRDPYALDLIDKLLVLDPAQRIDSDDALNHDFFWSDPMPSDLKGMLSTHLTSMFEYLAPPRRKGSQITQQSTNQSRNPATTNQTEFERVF", "assay": "Inhibition of CDK9 (unknown origin) assessed as residual activity at 10 uM relative to control"}, "[19]": {"molecular_target": "Mitogen-activated protein kinase 3 (Homo sapiens) (UniProt P27361)", "sequence (P27361 whole entry)": "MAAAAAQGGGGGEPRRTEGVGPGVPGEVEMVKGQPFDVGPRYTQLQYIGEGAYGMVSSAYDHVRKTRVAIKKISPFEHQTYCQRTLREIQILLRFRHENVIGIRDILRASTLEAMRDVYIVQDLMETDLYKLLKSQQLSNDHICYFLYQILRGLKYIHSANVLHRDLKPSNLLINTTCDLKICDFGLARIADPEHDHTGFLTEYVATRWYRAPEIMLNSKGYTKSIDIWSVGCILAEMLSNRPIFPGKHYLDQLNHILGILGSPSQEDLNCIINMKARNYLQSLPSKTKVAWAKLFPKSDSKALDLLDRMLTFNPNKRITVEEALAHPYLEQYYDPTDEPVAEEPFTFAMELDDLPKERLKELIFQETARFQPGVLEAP", "assay": "Inhibition of ERK1 (unknown origin) assessed as residual activity at 10 uM relative to control"}, "[20]": {"molecular_target": "Mitogen-activated protein kinase 1 (Homo sapiens) (UniProt P28482)", "sequence (P28482 whole entry)": "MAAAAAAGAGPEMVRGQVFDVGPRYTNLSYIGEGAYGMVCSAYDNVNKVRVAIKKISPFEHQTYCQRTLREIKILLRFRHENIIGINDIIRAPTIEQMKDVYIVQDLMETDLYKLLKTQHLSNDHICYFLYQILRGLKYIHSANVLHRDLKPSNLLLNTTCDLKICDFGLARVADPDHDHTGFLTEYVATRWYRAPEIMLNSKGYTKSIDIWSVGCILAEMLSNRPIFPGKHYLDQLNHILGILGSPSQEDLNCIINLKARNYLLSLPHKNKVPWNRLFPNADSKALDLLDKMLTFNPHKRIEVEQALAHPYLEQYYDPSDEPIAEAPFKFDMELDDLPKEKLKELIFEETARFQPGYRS", "assay": "Inhibition of ERK2 (unknown origin) assessed as residual activity at 10 uM relative to control"}, "[21]": {"molecular_target": "RAC-alpha serine/threonine-protein kinase (Homo sapiens) (UniProt P31749)", "sequence (P31749 whole entry)": "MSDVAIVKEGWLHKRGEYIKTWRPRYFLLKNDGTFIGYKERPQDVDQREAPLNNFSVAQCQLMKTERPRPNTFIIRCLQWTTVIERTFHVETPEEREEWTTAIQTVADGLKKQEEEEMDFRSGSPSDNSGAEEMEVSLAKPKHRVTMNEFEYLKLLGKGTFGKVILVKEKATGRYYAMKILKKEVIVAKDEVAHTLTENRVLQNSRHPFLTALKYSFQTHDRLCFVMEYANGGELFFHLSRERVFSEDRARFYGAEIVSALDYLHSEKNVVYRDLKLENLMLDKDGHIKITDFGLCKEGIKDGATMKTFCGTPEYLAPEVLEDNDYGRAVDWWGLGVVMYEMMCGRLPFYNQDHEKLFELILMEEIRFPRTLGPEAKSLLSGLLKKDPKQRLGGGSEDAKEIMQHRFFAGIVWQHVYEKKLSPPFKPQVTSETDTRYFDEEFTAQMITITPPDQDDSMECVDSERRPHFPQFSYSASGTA", "assay": "Inhibition of PKBalpha (unknown origin) assessed as residual activity at 10 uM relative to control"}, "[22]": {"molecular_target": "RAC-beta serine/threonine-protein kinase (Homo sapiens) (UniProt P31751)", "sequence (P31751 whole entry)": "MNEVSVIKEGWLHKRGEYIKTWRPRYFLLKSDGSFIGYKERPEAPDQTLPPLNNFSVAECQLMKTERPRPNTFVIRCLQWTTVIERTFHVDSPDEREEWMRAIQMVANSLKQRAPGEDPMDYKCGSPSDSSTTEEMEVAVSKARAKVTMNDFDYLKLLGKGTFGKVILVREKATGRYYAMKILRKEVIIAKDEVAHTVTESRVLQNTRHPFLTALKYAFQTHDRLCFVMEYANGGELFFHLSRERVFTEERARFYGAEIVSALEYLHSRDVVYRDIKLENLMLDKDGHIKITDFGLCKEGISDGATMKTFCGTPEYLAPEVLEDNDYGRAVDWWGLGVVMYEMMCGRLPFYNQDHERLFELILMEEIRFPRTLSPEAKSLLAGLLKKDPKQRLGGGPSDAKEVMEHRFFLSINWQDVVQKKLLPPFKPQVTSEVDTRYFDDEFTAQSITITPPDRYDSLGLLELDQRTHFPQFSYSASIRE", "assay": "Inhibition of PKBbeta (unknown origin) assessed as residual activity at 10 uM relative to control"}, "[23]": {"molecular_target": "Protein kinase C alpha type (Homo sapiens) (UniProt P17252)", "assay": "Inhibition of PKCalpha (unknown origin) assessed as residual activity at 10 uM relative to control"}, "[24]": {"molecular_target": "Protein kinase C gamma type (Homo sapiens) (UniProt P05129)", "assay": "Inhibition of PKCgamma (unknown origin) assessed as residual activity at 10 uM relative to control"}, "[25]": {"assay": "Cytotoxicity against human Astrocyte at 10 to 100 uM incubated for 72 hrs by PrestoBlue cell viability assay", "format": "toxicity, cell-based", "conditions": "dose 10-100 µM"}, "U-251 [26]": {"tested_on": "U-251", "assay": "Induction of cell cycle arrest in human U-251MG cells assessed as accumulation of cell at G1 phase at IC50 concentration incubated for 72 hrs by propidium iodide/RNase staining based flow cytometry (reference value: 74.8 %)", "format": "functional"}, "T98G [27]": {"tested_on": "T98G", "assay": "Induction of cell cycle arrest in human T98G cells assessed as accumulation of cell at G1 phase at IC50 concentration incubated for 72 hrs by propidium iodide/RNase staining based flow cytometry (reference value: 73.3 %)", "format": "functional"}, "U-87 MG [28]": {"tested_on": "U-87 MG", "assay": "Induction of cell cycle arrest in human U-87 MG cells assessed as accumulation of cell at S phase at IC50 concentration incubated for 72 hrs by propidium iodide/RNase staining based flow cytometry relative to control", "format": "functional, U-87MG ATCC"}, "U-251 [29]": {"tested_on": "U-251", "assay": "Induction of cell cycle arrest in human U-251MG cells assessed as accumulation of cell at S phase at IC50 concentration incubated for 72 hrs by propidium iodide/RNase staining based flow cytometry relative to control", "format": "functional"}, "T98G [30]": {"tested_on": "T98G", "assay": "Induction of cell cycle arrest in human T98G cells assessed as accumulation of cell at S phase at IC50 concentration incubated for 72 hrs by propidium iodide/RNase staining based flow cytometry relative to control", "format": "functional"}, "U-87 MG [31]": {"tested_on": "U-87 MG", "assay": "Induction of cell cycle arrest in human U-87 MG cells assessed as accumulation of cell at sub-G1 phase at IC50 concentration incubated for 72 hrs by propidium iodide/RNase staining based flow cytometry relative to control", "format": "functional", "conditions": "U-87MG ATCC"}, "[32]": {"assay": "Metabolic stability in human liver microsomes assessed as half life at 10 uM incubated up to 60 mins by HPLC-MS analysis", "format": "ADME, Microsome"}, "[33]": {"assay": "Metabolic stability in human liver microsomes assessed as intrinsic clearance at 10 uM incubated up to 60 mins by HPLC-MS analysis", "format": "ADME, Microsome", "conditions": "1 h"}, "T98G [34]": {"tested_on": "T98G", "assay": "Antiproliferative activity against human T98G cells assessed as reduction in cell viability at IC50 concentrations incubated for 72 hrs in presence of in BBB model (cocultured with HA, HBVP and HBMEC cells) by PrestoBlue cell viability assay relative to control", "format": "functional"}, "T98G [35]": {"tested_on": "T98G", "assay": "Antiproliferative activity against human T98G cells assessed as reduction in cell viability at IC50 concentrations incubated for 72 hrs by PrestoBlue cell viability assay relative to control", "format": "functional"}, "Homo sapiens [36]": {"species": "Homo sapiens", "assay": "Inhibition of PKA (unknown origin) at 10 uM"}, "[37]": {"assay": "Cytotoxicity against human Astrocyte at 100 uM incubated for 72 hrs by PrestoBlue cell viability assay", "format": "toxicity, cell-based"}},
  "note": "The source made the active and inactive calls. No cut-off for these calls is given here.",
  "data": [
    {"smiles": "Cn1sc(=O)n(Cc2ccccc2)c1=O", "values": [
      {"measurement": "Activity", "setting": "U-251 [1]", "result": "Dose-dependent-effect"},
      {"measurement": "IC50", "setting": "T98G [2]", "result": 65.9, "unit": "µM"},
      {"measurement": "IC50", "setting": "T98G [3]", "result": 54.4, "unit": "µM"},
      {"measurement": "IC50", "setting": "T98G [4]", "result": 41.4, "unit": "µM"},
      {"measurement": "IC50", "setting": "U-87 MG [5]", "result": 36.8, "unit": "µM"},
      {"measurement": "IC50", "setting": "U-87 MG [6]", "result": 28.2, "unit": "µM"},
      {"measurement": "IC50", "setting": "U-87 MG [7]", "result": 23.6, "unit": "µM"},
      {"measurement": "Activity", "setting": "T98G [8]", "result": "Dose-dependent-effect"},
      {"measurement": "Activity", "setting": "U-87 MG [9]", "result": "Dose-dependent-effect"},
      {"measurement": "IC50", "setting": "U-251 [10]", "result": 51, "unit": "µM"},
      {"measurement": "IC50", "setting": "U-251 [11]", "result": 24.9, "unit": "µM"},
      {"measurement": "IC50", "setting": "U-251 [12]", "result": 15.7, "unit": "µM"}
    ]},
    {"smiles": "CC(C)c1ccc(-c2c3cn[nH]c3nc3c2oc2cc(O)ccc23)cc1", "values": [
      {"measurement": "Activity", "setting": "U-87 MG [13]", "result": 45.5, "unit": "%"},
      {"measurement": "Activity", "setting": "U-251 [1]", "result": "Dose-dependent-effect"},
      {"measurement": "IC50", "setting": "[14]", "result": 0.188, "unit": "µM"},
      {"measurement": "Activity", "setting": "Homo sapiens [15]", "result": "> 50", "unit": "%"},
      {"measurement": "Activity", "setting": "[16]", "result": "> 50", "unit": "%"},
      {"measurement": "Activity", "setting": "[17]", "result": "> 50", "unit": "%"},
      {"measurement": "Activity", "setting": "[18]", "result": "> 50", "unit": "%"},
      {"measurement": "Activity", "setting": "[19]", "result": "> 50", "unit": "%"},
      {"measurement": "Activity", "setting": "[20]", "result": "> 50", "unit": "%"},
      {"measurement": "Activity", "setting": "[21]", "result": "> 50", "unit": "%"},
      {"measurement": "Activity", "setting": "[22]", "result": "> 50", "unit": "%"},
      {"measurement": "Activity", "setting": "[23]", "result": "> 50", "unit": "%"},
      {"measurement": "Activity", "setting": "[24]", "result": "> 50", "unit": "%"},
      {"measurement": "IC50", "setting": "T98G [2]", "result": 12, "unit": "µM"},
      {"measurement": "IC50", "setting": "T98G [3]", "result": 8.1, "unit": "µM"},
      {"measurement": "IC50", "setting": "T98G [4]", "result": 6.2, "unit": "µM"},
      {"measurement": "IC50", "setting": "U-87 MG [5]", "result": 15, "unit": "µM"},
      {"measurement": "IC50", "setting": "U-87 MG [6]", "result": 4.7, "unit": "µM"},
      {"measurement": "IC50", "setting": "U-87 MG [7]", "result": 3.3, "unit": "µM"},
      {"measurement": "Activity", "setting": "T98G [8]", "result": "Dose-dependent-effect"},
      {"measurement": "Activity", "setting": "U-87 MG [9]", "result": "Dose-dependent-effect"},
      {"measurement": "Activity", "setting": "[25]", "result": "Non-toxic"},
      {"measurement": "Activity", "setting": "U-251 [26]", "result": 61.6, "unit": "%"},
      {"measurement": "Activity", "setting": "T98G [27]", "result": 65.8, "unit": "%"},
      {"measurement": "Activity", "setting": "U-87 MG [28]", "result": 27.8, "unit": "%"},
      {"measurement": "Activity", "setting": "U-251 [29]", "result": 15.9, "unit": "%"},
      {"measurement": "Activity", "setting": "T98G [30]", "result": 22.3, "unit": "%"},
      {"measurement": "Activity", "setting": "U-87 MG [31]", "result": "Active"},
      {"measurement": "half-life at 10 µM", "setting": "[32]", "result": 1.68, "unit": "h"},
      {"measurement": "CLH", "setting": "[33]", "result": 5.6, "unit": "µL/min/mg"},
      {"measurement": "Activity", "setting": "T98G [34]", "result": 78, "unit": "%"},
      {"measurement": "Activity", "setting": "T98G [35]", "result": 61, "unit": "%"},
      {"measurement": "inhibition", "setting": "Homo sapiens [36]", "result": "Active"},
      {"measurement": "Activity", "setting": "[37]", "result": "Non-toxic"},
      {"measurement": "IC50", "setting": "U-251 [10]", "result": 15.1, "unit": "µM"},
      {"measurement": "IC50", "setting": "U-251 [11]", "result": 8.3, "unit": "µM"},
      {"measurement": "IC50", "setting": "U-251 [12]", "result": 6.1, "unit": "µM"}
    ]}
  ]
}
